Like-named read-outs stand apart in the source and are kept apart here. Residues, ends and D or L forms follow the SMILES beside them.
Assays:
[1] = system: rat 3-D primary aggregating brain cell cultures; assay: Gene expression (mRNA of nestin, NF-200, S100β, MBP) by quantitative real-time PCR in aggregating brain cell cultures exposed to potential DNT chemicals; assay type: cell-based
Protocol: (§1) Generally one batch of Rat primary aggregating brain cell cultures aggregates were prepared every month. […] The endpoints applied to study processes of neurodevelopment include quantitative real-time PCR, Western blot analysis and mass spectrometry based metabolomics.
Aggregate cultures were maintained for 35 days in vitro (DIV). Samples were taken at DIV 1, 7, 14, 21, 28, 35 and mRNA was isolated, purified and quantified by RT-PCR.
The expression of the following genes was quantified; nestin expressed in neural precurser cells, neurofilament-200 (NF-200) expressed in neurons, S100β expressed in astrocytes and myelin basic protein (MBP) expressed in oligodendrocytes.
Aggregating brain cell cultures were exposed to potential DNT chemicals during both early (day in vitro 7-14) and late developmental stages (day in vitro […]). Chemicals were dissolved in water or DMSO depending on their chemical properties. Control cells received the vehicle without the DNT chemical.

[2] = system: primary rat aggregating brain cell cultures; assay type: cell-based
Protocol: as §1
Cellular extracts (control and treated cultures) were prepared as described. The samples were used to establish an LC-MS method for the analysis of metabolites. […] Significant pertubations in metabolite levels were determined by principal component analysis and metabolites were identified by a Metlin metabolite database search using their retention time and accurate mass. Examples of metabolites that were perturbed by lead chloride and TCE treatment in the neuronal cell model and could be linked to biological pathways are provided in Table 3.

[3] = astrocytic marker, exposure DIV 7-14 or 7-21, real-time PCR
[4] = nestin, NF-200, S100β, MBP, exposure DIV 7-14 or 7-21
[5] = neural precursor marker, exposure DIV 7-14 or 7-21, real-time PCR
[6] = neuronal marker, exposure DIV 7-14 or 7-21, real-time PCR
[7] = oligodendrocyte marker, exposure DIV 7-14 or 7-21, real-time PCR

Compound | The lowest concentration inducing changes in mRNA levels of S100β [1, 3] | significant effects on quantified gene expression levels (one or several cell type related genes) [1, 4] | The lowest concentration inducing changes in mRNA levels of nestin [1, 5] | The lowest concentration inducing changes in mRNA levels of NF-200 [1, 6] | The lowest concentration inducing changes in mRNA levels of MBP [1, 7] | significant effects on quantified gene expression levels (one or several cell type related genes) [1] | The lowest concentration inducing changes in mRNA levels of NF-200 ([1]; rat) | The lowest concentration inducing changes in mRNA levels of S100β ([1]; rat) | The lowest concentration inducing changes in mRNA levels of nestin ([1]; rat) | alteration of metabolites in the aggregate samples ([2]; LC-MS, intra-cellular extracts, treatment 7 to 21 DIV, principal component analysis) | The lowest concentration inducing changes in mRNA levels of S100β ([1]; astrocytic marker, exposure DIV 7-14 or 7-21, real-time PCR, listed as maneb) | alteration of metabolites in the aggregate samples [2] | The lowest concentration inducing changes in mRNA levels of MBP ([1]; rat) [µM]
COC(=O)[C@H](Cc1ccccc1)NC(=O)[C@@H](N)CC(=O)O [Aspartame] (HELM PEPTIDE1{D.F.[CO[*:1]]}$$$$V2.0) | —^1 | did not induce any significant effects | —^1 | —^1 | —^1 | – | – | – | – | – | – | – | –
CC(C)(c1ccc(O)cc1)c1ccc(O)cc1 [Bisphenol A] | —^1 | significantly affected | —^1 | 100 µM | —^1 | – | – | – | – | – | – | – | –
[Cl][Cd][Cl] [Cadmium Chloride] | 1 µM | significantly affected | 1 µM | 1 µM | 10 µM | – | – | – | – | – | – | – | –
CNC(=O)Oc1cccc2ccccc12 [Carbaryl] | —^1 | – | 0.1 µM | 0.1 µM | 0.1 µM | – | – | – | – | – | – | – | –
CCOP(=S)(OCC)Oc1nc(Cl)c(Cl)cc1Cl [Chlorpyrifos] | 10 µM | significantly affected | 0.1 µM | 0.1 µM | 1 µM | – | – | – | – | – | – | – | –
Nc1nnc(-c2cccc(Cl)c2Cl)c(N)n1 [Lamotrigine] | – | – | – | – | – | did not induce any significant effects | —^1 | —^1 | —^1 | – | – | – | –
[Cl][Pb][Cl] [Lead Chloride] | 10 µM | significantly affected | 10 µM | 0.1 µM | 0.1 µM | – | – | – | – | altered hundreds of metabolites | – | – | –
Cl[C@H]1[C@H](Cl)[C@@H](Cl)[C@@H](Cl)[C@H](Cl)[C@H]1Cl [Lindane] | —^1 | significantly affected | 0.1 µM | 0.1 µM | 1 µM | – | – | – | – | – | – | – | –
S=C([S-])NCCNC(=S)[S-].[Mn+2] [Maneb] | —^1 | significantly affected | 1 µM | 0.1 µM | 0.1 µM | – | – | – | – | – | no observed effects | – | –
ClC=C(Cl)Cl [Trichloroethylene] | – | – | – | – | – | significantly affected | 0.1 µM | —^1 | 50 µM | – | – | altered hundreds of metabolites | –
CCCC(CCC)C(=O)O [Valproic acid] | – | – | – | – | – | significantly affected | —^1 | 500 µM | —^1 | – | – | – | 100
